Each block holds one compound with its values, some of them ahead of it.
Tests used:
Type in all cases: cell-based
Bacillus subtilis = assay: Minimum inhibitory concentration (MIC) assay, B. subtilis
Description: (§1) Biological Assays: Minimum inhibitory concentration (MIC) assay: A single bacterial colony (Bacillus subtilis (B. subtilis) or methicillin-resistant Staphylococcus aureus (MRSA)) was selected and incubated in media (Luria Broth (LB) for B. subtilis or Tryptic Soy Broth (TSB) for MRSA) at 37° C. overnight. This was sub-cultured in media and incubated at 37° C. until the OD600 was approximately 0.5 (2.5-3.5-hour incubation). The subculture was diluted with media to an OD600 of 0.001. Diluted subculture and 1 mM stocks of compounds to be tested were added to a clear 96-well plate, and serially diluted by a factor of 0.5. The well plate was incubated overnight and the absorbance was measured at 600 nm using the TECAN. To determine the MIC in presence of serum, assays were repeated using media with 20% heat-inactivated mouse serum or 20% fetal bovine serum. […] The MIC50 was calculated using a 4PL sigmoidal nonlinear regression on Prism. The MIC100 was calculated as the first point below 10% of the maximum.
The MIC of PEG24-LL-PDT4G against B. subtilis was compared with the MIC of unmodified PDT-4G. Both compounds were pre-incubated with B. subtilis supernatant for 0, 4, or 24 hours before the MIC assay to test cleavage kinetics (FIG. 53).

E. coli = assay: Minimum inhibitory concentration (MIC) assay, E. coli
[1] = tested on: methicillin resistant Staphylococcus aureus (MRSA) (ATCC 33591); assay: Minimum inhibitory concentration (MIC) assay, MRSA
Description: as §1

[2] = tested on: community associated Staphylococcus aureus (strain USA300); assay: Minimum inhibitory concentration (MIC) assay, S. aureus USA300
Description: as §1

[3] = tested on: cell membrane of methicillin resistant Staphylococcus aureus (MRSA); assay: Membrane permeabilization propidium iodide (PI) assay, MRSA
bacterial membrane = assay: Cytoplasmic permeability assay with propidium iodide, fluorescence microscopy; conditions: incubated with PI
Description: Membrane permeabilization propidium iodide (PI) assay: 1 mM BDT-4G stock solutions were prepared in DMSO. B. subtilis strains were streaked onto a Luria Broth (LB) agar plate and incubated overnight. One colony was selected and incubated in LB overnight, then subcultured and incubated until the OD600 measured between 0.5 and 0.6. Bacteria were harvested, washed, and resuspended in a solution of 5 mM HEPES, 5 mM glucose, and 10 μM propidium iodide. 150 μL bacteria solution was added to each well of a black 96 well plate. Fluorescence measurements were taken at 535 nm excitation, 617 nm emission on a TECAN Infinite M1000 PRO Microplate reader (Männdorf) (TECAN) for 2 minutes. BDT-4G stock solution was added for a concentration of 15 μg/mL, and fluorescence measurements were taken for an additional 20 minutes.
Membrane permeabilization dictates lytic potential. A cytoplasmic permeability assay was performed using propidium iodide (PI). PI is a cell impermeant intercalating agent that fluoresces when bound to nucleic acids. As such, PI can be used to identify cells with compromised membranes by measuring an increase in fluorescence above the baseline. This phenomenon was qualitatively confirmed by performing fluorescence microscopy studies incubated with PI with or without the AOTs. […]

[4] = tested on: Pseudomonas aeruginosa (PA-14, PA-1); assay: MIC assay, Pseudomonas aeruginosa strains; conditions: Pseudomonas aeruginosa PA-14 and PA-1
From the text: PA-14 is a highly virulent Pseudomonas aeruginosa strain (Gram-negative) that is difficult to treat. PA-1 is a meropenem resistant clinical isolate of Pseudomonas aeruginosa that was obtained from a patient. Meropenem, vancomycin and polymyxin B are commercial antibiotics that are used as controls.

[5] = presence of elevated calcium and magnesium ions (25 mM)
[6] = normal (Tryptic Soy media) media
[7] = presence of elevated calcium and magnesium ions (25 mM) and presence of heat-inactivated fetal bovine serum

antibacterial activity (MIC100) against Bacillus subtilis (Bacillus subtilis; [5]): maintain their antibacterial activity | antibacterial activity (MIC100) against E. coli (E. coli; [5]): maintain their antibacterial activity | antibacterial activity (MIC100) against MRSA [1, 7]: maintain their antibacterial activity | antibacterial activity (MIC100) against Staphylococcus aureus strain USA300 [2, 7]: maintain their antibacterial activity
SMILES: C=CCN(CCNC(=N)N)C(=O)CCSCCCCSCCCN(CCNC(=N)N)C(=O)CCSCCCCSCCCN(CCNC(=N)N)C(=O)CCSCCCCSCCCN(CCNC(=N)N)C(=O)CCSCCCCSCCCN(CCNC(=N)N)C(=O)CCSCCCCSCCCN [BDT-5G]
antibacterial activity (MIC100) against Bacillus subtilis (Bacillus subtilis; normal (LB media) media): show activity | antibacterial activity (MIC100) against E. coli (E. coli; normal (LB media) media): show activity | antibacterial activity (MIC100) against MRSA [1, 6]: show activity | antibacterial activity (MIC100) against Staphylococcus aureus strain USA300 [2, 6]: show activity

SMILES: CN[C@H](CC(C)C)C(=O)N[C@H]1C(=O)N[C@@H](CC(N)=O)C(=O)N[C@H]2C(=O)N[C@H]3C(=O)N[C@H](C(=O)N[C@H](C(=O)O)c4cc(O)cc(O)c4-c4cc3ccc4O)[C@H](O)c3ccc(c(Cl)c3)Oc3cc2cc(c3O[C@@H]2O[C@H](CO)[C@@H](O)[C@H](O)[C@H]2O[C@H]2C[C@](C)(N)[C@H](O)[C@H](C)O2)Oc2ccc(cc2Cl)[C@H]1O [Vancomycin]
membrane destabilization (diffusion of propidium iodide dye into the cell) [3]: no membrane compromise | propidium iodide entry into cells (staining) (bacterial membrane): PI was unable to gain entry into cells

SMILES: CCCCCCCCCC(=O)N[C@@H](Cc1c[nH]c2ccccc12)C(=O)N[C@H](CC(N)=O)C(=O)N[C@@H](CC(=O)O)C(=O)N[C@@H]1C(=O)NCC(=O)N[C@@H](CCCN)C(=O)N[C@@H](CC(=O)O)C(=O)N[C@H](C)C(=O)N[C@@H](CC(=O)O)C(=O)NCC(=O)N[C@H](CO)C(=O)N[C@@H]([C@H](C)CC(=O)O)C(=O)N[C@@H](CC(=O)c2ccccc2N)C(=O)O[C@@H]1C [daptomycin]
membrane destabilization (diffusion of propidium iodide dye into the cell) [3]: no membrane compromise

SMILES: C=CCN(CCNC(=N)N)C(=O)CCSCCCSCCCN(CCNC(=N)N)C(=O)CCSCc1cccc(CSCCCN(CCNC(=N)N)C(=O)CCSCCCSCCCN)c1 [3GMG3G]
activity relative to the para substituted compound (3GPG3G) [4]: 2-4 fold
